Among the data in patent US10441562B2, “Aromatic farnesyl compound and application thereof” (INSTITUTE OF MICROBIOLOGY, CHINESE ACADEMY OF SCIENCES, priority 2015, dated 2019) are IC50 values, retold here.

What all share (format): biochemical
One assay has as its target T1, α-glucosidase (Saccharomyces cerevisiae, UniProt P53341).
T1 construct: purchased Sigma Corporation G5003
The assay is described as follows: α-glucosidase inhibitory activity test in vitro. How it is done:
Add 25 μL α-glucosidase water solution (0.2 U/mL) and 175 μL phosphate buffer (50 mM, pH 7.0) into 25 μL different concentration of the above test solutions. The mixed solution is standed for 10 min at room temperature, and then 25 μL 4-nitrophenyl-α-D-glucopyranoside water solution (2.5 mM) is added into the mixed solution. After the solution is incubated at 37 °C for 30 min and centrifuged at 5000 rpm for 5 minutes, 150 uL supernatant is added into 96-well plates and the absorbance is detected at 405 nm.
Blank group: the test solution is replaced by 25 μL phosphate buffer (50 mM, pH 7.0); blank control group: the test solution is replaced by 25 μL phosphate buffer (50 mM, pH 7.0), meanwhile α-glucosidase water solution is replaced by 25 μL phosphate buffer (50 mM, pH 7.0); sample control group: α-glucosidase water solution is replaced by 25 μL phosphate buffer (50 mM, pH 7.0).
(§1) Repeat each of the above experiment groups for 3 times, and then average the results.
IC50=[CL(IH−50)+CH(50−IL)]/(IH−IL) CL: low concentration value; CH: high concentration value; IH: inhibition rate in high concentration; IL: inhibition rate in low concentration

In a further assay the target is T2, dipeptidyl peptidase-4 (Homo sapiens, UniProt P27487).
T2 construct: purchased
T2 sequence (P27487 whole entry, species assumed): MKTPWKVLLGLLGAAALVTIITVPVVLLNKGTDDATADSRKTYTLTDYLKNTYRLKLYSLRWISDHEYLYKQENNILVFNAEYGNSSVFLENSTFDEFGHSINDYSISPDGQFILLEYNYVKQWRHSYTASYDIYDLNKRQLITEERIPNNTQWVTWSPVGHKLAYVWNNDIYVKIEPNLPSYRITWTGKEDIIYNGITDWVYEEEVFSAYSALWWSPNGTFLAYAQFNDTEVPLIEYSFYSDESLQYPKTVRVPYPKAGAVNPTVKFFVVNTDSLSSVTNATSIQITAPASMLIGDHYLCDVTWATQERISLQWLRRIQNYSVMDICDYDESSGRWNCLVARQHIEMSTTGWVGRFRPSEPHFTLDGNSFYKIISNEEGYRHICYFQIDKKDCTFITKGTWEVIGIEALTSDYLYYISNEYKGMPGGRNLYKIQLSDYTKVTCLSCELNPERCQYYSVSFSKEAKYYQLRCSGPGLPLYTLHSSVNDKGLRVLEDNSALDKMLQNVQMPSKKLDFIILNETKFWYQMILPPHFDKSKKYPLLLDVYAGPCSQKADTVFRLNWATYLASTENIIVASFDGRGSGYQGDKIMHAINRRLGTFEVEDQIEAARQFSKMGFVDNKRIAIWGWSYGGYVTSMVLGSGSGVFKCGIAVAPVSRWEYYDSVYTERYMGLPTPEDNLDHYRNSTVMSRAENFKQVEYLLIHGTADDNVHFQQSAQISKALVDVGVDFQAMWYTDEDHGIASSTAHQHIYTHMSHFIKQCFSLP
The assay is described as follows: dipeptidyl peptidase-4 inhibitory activity test in vitro (DPP-4 inhibitor screening kit). An excerpt:
The above compounds are detected by DPP-4 inhibitor screening kit.

Another assay has as its target aldose reductase (Homo sapiens, UniProt P15121). The assay is described as follows: aldose reductase inhibitory activity test in vitro. How it is done: Experimental procedure: the following reagents are added into 96-well plates in sequence and the mixture ratios of different groups are as followings:
Test group: 10 μL compound solution+25 μL (0.1 mM) NADPH solution+25 μL PBS buffer solution+15 μL aldose reductase diluent
Blank group: 25 μL (0.1 mM) NADPH solution+35 μL PBS buffer solution+15 μL aldose reductase diluent
Background group: 25 μL (0.1 mM) NADPH solution+60 μL PBS buffer solution+15 μL aldose reductase diluent
After adding the reagents, the 96-well plate is standed for 10 min at room temperature to make the compound and the enzyme react completely. Add 25 μL 10 mM D, L glyceraldehyde solution which is used as substrate into the groups except for background group, and incubate the solution at 37 °C for 30 min. Then detect the optical density of each well at 340 nm.

A further assay concerns the target T3, HMG-CoA reductase (Homo sapiens, UniProt P04035).
T3 sequence (P04035 426-888 limits assumed): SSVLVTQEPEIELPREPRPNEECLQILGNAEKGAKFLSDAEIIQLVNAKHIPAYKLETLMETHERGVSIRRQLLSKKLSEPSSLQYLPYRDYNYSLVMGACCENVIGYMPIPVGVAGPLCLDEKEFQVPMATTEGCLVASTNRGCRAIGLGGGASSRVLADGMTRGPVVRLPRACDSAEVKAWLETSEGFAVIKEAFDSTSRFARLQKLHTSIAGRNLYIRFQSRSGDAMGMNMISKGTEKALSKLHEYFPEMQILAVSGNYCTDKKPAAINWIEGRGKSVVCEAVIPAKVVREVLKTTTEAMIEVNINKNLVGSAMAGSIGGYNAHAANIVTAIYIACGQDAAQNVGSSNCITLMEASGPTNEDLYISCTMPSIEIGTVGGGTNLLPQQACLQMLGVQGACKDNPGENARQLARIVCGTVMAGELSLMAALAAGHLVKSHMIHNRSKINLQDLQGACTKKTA
The assay is described as follows: HMG-CoA reductase inhibitory activity test in vitro. How it is done:
Add 25 μL HMG-CoA reductase water solution (0.2 U/mL), 25 μL NADPH water solution (0.2 U/mL) and 24 μL phosphate buffer (50 mM, pH 7.0) into 1 μL different concentration of the above test solution. The mixed solution is standed for 10 min at room temperature, and then 25 μL HMG-CoA is added into the mixed solution. After the solution is incubated at 37∞ for 30 min and centrifuged at 5000 rpm for 5 minutes, 80 uL supernatant is added into 96-well plates and the absorbance is detected at 550 nm.
as §1

The target in assay [1] is T4, protein tyrosine phosphatase 1B (PTP-1B) (Homo sapiens, UniProt P18031).
T4 sequence (P18031 1-435): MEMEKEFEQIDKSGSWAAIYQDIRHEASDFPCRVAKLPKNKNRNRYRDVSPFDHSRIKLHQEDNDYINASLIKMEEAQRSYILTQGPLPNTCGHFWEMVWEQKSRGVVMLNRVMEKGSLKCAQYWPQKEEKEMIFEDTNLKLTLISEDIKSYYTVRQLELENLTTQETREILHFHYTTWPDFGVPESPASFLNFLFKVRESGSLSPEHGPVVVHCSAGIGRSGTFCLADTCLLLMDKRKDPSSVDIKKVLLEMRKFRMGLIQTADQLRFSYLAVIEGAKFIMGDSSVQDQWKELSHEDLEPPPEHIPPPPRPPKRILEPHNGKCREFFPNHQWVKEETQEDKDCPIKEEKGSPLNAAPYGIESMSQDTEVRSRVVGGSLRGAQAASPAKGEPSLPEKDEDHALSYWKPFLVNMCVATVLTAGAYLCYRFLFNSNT
The assay is described as follows: PTP-1B inhibitory activity test in vitro. As for the experimental part: Experimental procedure: the following reagents are added into 96-well plates in sequence and the mixture ratios of different groups are as followings: Test group: 50 μL compound solution+50 μL 170 μg/mL PTP-1B solution […] Blank group: 50 μL buffer solution+50 μL 170 μg/mL PTP-1B solution Background group: 50 μL compound solution+50 μL buffer solution After adding the reagents, the 96-well plate is […] for 10 min at room temperature to make the compound and the enzyme react completely. Add 50 μL 1 mM pNPP solution which is used as substrate and incubate the mixed solution at 37 °C for 30 min. Then add 50 μL 3M NaOH into each well of the plate to stop the reaction and the optical density is detected at […].

Setting [2] is: read-out: α-glucosidase inhibitory activity (IC50).

Where two headings read alike, the source gives them in different places.

T1 sequence (P53341 whole entry): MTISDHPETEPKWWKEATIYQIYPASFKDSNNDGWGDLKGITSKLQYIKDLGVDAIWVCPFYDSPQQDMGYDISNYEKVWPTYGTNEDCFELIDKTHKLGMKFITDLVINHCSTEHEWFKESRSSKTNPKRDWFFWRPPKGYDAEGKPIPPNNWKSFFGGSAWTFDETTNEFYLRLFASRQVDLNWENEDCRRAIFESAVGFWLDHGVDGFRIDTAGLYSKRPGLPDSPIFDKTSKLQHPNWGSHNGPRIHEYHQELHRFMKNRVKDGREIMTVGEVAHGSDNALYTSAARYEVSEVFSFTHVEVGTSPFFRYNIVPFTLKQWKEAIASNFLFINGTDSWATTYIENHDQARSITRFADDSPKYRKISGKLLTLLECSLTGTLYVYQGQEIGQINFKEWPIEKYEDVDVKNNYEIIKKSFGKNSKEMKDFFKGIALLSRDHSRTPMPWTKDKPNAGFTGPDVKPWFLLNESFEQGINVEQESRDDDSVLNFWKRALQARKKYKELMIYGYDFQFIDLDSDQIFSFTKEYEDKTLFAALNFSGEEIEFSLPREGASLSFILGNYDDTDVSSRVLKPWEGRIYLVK

As a reminder, the IC50 is the midpoint of a concentration-inhibition curve. As for `CC(C)=CCC/C(C)=C/CCC1=C[C@@H](c2ccccc2O)OC1=O` [S19, (S,E)-3-(4,8-dimethylnona-3,7-dien-1-yl)-5-(2-hydroxyphenyl)furan-2(5H)-one], the IC50 on α-glucosidase (setting [2]) came out at 0.52 µM; against dipeptidyl peptidase-4, 20.2 µM; against aldose reductase it was 25.4 µM; at HMG-CoA reductase, 5.5 µM; in assay [1] it was 11.5 µM.
In the case of `CC(C)=CCC/C(C)=C/CCC1=C[C@@H](c2ccccc2[N+](=O)[O-])OC1=O` [S20, (S,E)-3-(4,8-dimethylnona-3,7-dien-1-yl)-5-(2-nitrophenyl)furan-2(5H)-one], the IC50 on α-glucosidase (setting [2]) worked out at 0.21 µM; against dipeptidyl peptidase-4, 20.8 µM; against aldose reductase it was 9.5 µM; on HMG-CoA reductase, 13.8 µM; in assay [1], 4.7 µM.
On to `CC(C)=CCC/C(C)=C/CCC1=C[C@@H](c2ccc(C)cc2)OC1=O` [S21, (S,E)-3-(4,8-dimethylnona-3,7-dien-1-yl)-5-(p-tolyl)furan-2(5H)-one], for which the IC50 amounted to 1.03 µM on α-glucosidase (setting [2]); 16.5 µM on dipeptidyl peptidase-4; 55.1 µM on aldose reductase; 12.5 µM at HMG-CoA reductase; 5.8 µM in assay [1].
For the compound `CCc1ccc([C@@H]2C=C(CC/C=C(\C)CCC=C(C)C)C(=O)O2)cc1` [S22, (S,E)-3-(4,8-dimethylnona-3,7-dien-1-yl)-5-(4-ethylphenyl)furan-2(5H)-one], the IC50 on α-glucosidase (setting [2]) was found to be 0.92 µM; against dipeptidyl peptidase-4, 9.5 µM; on aldose reductase, 55.6 µM; against HMG-CoA reductase it was 4.2 µM; in assay [1], 16.4 µM.
Take `CC(C)=CCC/C(C)=C/CCC1=C[C@@H](c2ccc(C(C)C)cc2)OC1=O` [S23, (S,E)-3-(4,8-dimethylnona-3,7-dien-1-yl)-5-(4-isopropylphenyl)furan-2(5H)-one]: the IC50 at α-glucosidase (setting [2]) is 49.2 µM; at dipeptidyl peptidase-4 it was 8.8 µM; against aldose reductase, 93.1 µM; against HMG-CoA reductase, 87.2 µM; in assay [1], 9.6 µM.
Regarding `CC(C)=CCC/C(C)=C/CCC1=C[C@@H](c2ccc(C(C)(C)C)cc2)OC1=O` [S24, (S,E)-5-(4-(tert-butyl)phenyl)-3-(4,8-dimethylnona-3,7-dien-1-yl)furan-2 (5H)-one], the IC50 was found to be 0.23 µM on α-glucosidase (setting [2]); 15.8 µM against dipeptidyl peptidase-4; 1.2 µM at aldose reductase; 15.2 µM against HMG-CoA reductase; 17.6 µM in assay [1].
As to `COc1ccc([C@@H]2C=C(CC/C=C(\C)CCC=C(C)C)C(=O)O2)cc1` [S25, (S,E)-3-(4,8-dimethylnona-3,7-dien-1-yl)-5-(4-methoxyphenyl)furan-2(5H)-one], the IC50 is 52.1 µM on α-glucosidase (setting [2]); 18.5 µM at dipeptidyl peptidase-4; 101 µM on aldose reductase; 1.5 µM on HMG-CoA reductase; 16.5 µM in assay [1].
Turning to `CC(C)=CCC/C(C)=C/CCC1=C[C@@H](c2ccc([N+](=O)[O-])cc2)OC1=O` [S26, (S,E)-3-(4,8-dimethylnona-3,7-dien-1-yl)-5-(4-nitrophenyl)furan-2(5H)-one], the concentration for half-maximal inhibition (IC50) at α-glucosidase (setting [2]) was determined as 30.3 µM; against dipeptidyl peptidase-4, 10.6 µM; at aldose reductase it was 5.3 µM; against HMG-CoA reductase, 7.5 µM; in assay [1] it was 9.8 µM.
In the case of `COc1ccc(OC)c([C@@H]2C=C(CC/C=C(\C)CCC=C(C)C)C(=O)O2)c1` [S27, (S,E)-5-(2,5-dimethoxyphenyl)-3-(4,8-dimethylnona-3,7-dien-1-yl)furan-2(5H)-one], the IC50 on α-glucosidase (setting [2]) stood at 15.3 µM; on dipeptidyl peptidase-4, 8.6 µM; against aldose reductase, 25.2 µM; against HMG-CoA reductase, 4.4 µM; in assay [1], 12.3 µM.
In the case of `CC(C)=CCC/C(C)=C/CCC1=C[C@@H](c2c(F)cccc2F)OC1=O` [S29, (S,E)-5-(2,6-difluorophenyl)-3-(4,8-dimethylnona-3,7-dien-1-yl)furan-2(5H)-one], the IC50 at α-glucosidase (setting [2]) was determined as 3.95 µM; against dipeptidyl peptidase-4, 23.5 µM; at aldose reductase it was 33.5 µM; against HMG-CoA reductase, 16.8 µM; in assay [1], 4.4 µM.
In the case of `CC(C)=CCC/C(C)=C/CCC1=C[C@@H](c2cc(F)c(F)c(F)c2)OC1=O` [S30, (S,E)-3-(4,8-dimethylnona-3,7-dien-1-yl)-5-(3,4,5-trifluorophenyl)furan-2(5H)-one], the IC50 on α-glucosidase (setting [2]) worked out at 1.25 µM; on dipeptidyl peptidase-4 it was 11.6 µM; against aldose reductase, 53.4 µM; against HMG-CoA reductase, 24.2 µM; in assay [1], 21.1 µM.
For `COC1(c2cc(O)ccc2O)C=C(CC/C=C(\C)CCC=C(C)C)C(=O)O1` (stereo not drawn) [S31, (E)-5-(2,5-dihydroxyphenyl)-3-(4,8-dimethylnona-3,7-dien-1-yl)-5-meth oxyfuran-2(5H)-one], the IC50 was found to be 3.23 µM on α-glucosidase; 15.4 µM against dipeptidyl peptidase-4; 87.6 µM at aldose reductase; 32.3 µM against HMG-CoA reductase; 15.4 µM in assay [1].
Take `CC(C)=CCC/C(C)=C/CC/C(=C/C(=O)c1cc(O)ccc1O)C(=O)O` [S32, (2Z,5E)-2-(2-(2,5-dihydroxyphenyl)-2-oxoethylidene)-6,10-dimethylundeca-5,9-dienoic acid]: the IC50 at α-glucosidase (setting [2]) came out at 5.43 µM; on dipeptidyl peptidase-4, 21.2 µM; against aldose reductase, 34.9 µM; against HMG-CoA reductase, 5.4 µM; in assay [1], 7.6 µM.
Consider `C/C(=C\CC/C(C)=C/CC/C(=C/Cc1cc(O)ccc1O)C(=O)O)CO` [S33, (2Z,5E,9E)-2-(2-(2,5-dihydroxyphenyl)ethylidene)-11-hydroxy-6,10-dimethylundeca-5,9-dienoic acid], for which the IC50 against α-glucosidase was 12.2 µM; against dipeptidyl peptidase-4 it was 18.7 µM; on aldose reductase it was 23.1 µM; at HMG-CoA reductase, 32.9 µM; in assay [1], 4.5 µM.
Take `CC(C)=CCC/C(C)=C/CC/C(=C/Cc1cc(O)ccc1O)C(=O)O` [S34, (2Z,5E)-2-(2-(2,5-dihydroxyphenyl)ethylidene)-6,10-dimethylundeca-5,9-dienoic acid]: the IC50 at α-glucosidase (setting [2]) turned out to be 0.98 µM; against dipeptidyl peptidase-4, 15.2 µM; on aldose reductase, 8.7 µM; on HMG-CoA reductase it was 12.6 µM; in assay [1] it was 12.9 µM.
